In US20240228482A1, “COMPOUNDS, COMPOSITIONS AND METHODS OF TREATING CANCER” (HOTSPOT THERAPEUTICS, INC., priority 2021, published 2024) one finds IC50 data, which are given here for 37 compounds.

This assay deals with T1, CBL-B (Homo sapiens, UniProt Q13191).
T1 construct: GST
Put plainly: CBL-B TR-FRET IC50 screening (E1/E2 ubiquitination, Biotin-Ubiquitin, Anti GST-Tb donor / Streptavidin-d2 acceptor). Format: biochemical.

Where [1] appears, read: second part of Table 2 (head 'Patent Cmpd No / Updated Activity'), same CBL-B TR-FRET IC50 bins A-F, read-out: Updated Activity.
[2] abbreviates: CBL-B 10 nM final, 11-point titration from 100 uM, binned A-F, read-out: CBL-B TR-FRET activity IC50.

Like-named read-outs stand apart in the source and are kept apart here. Some results are limits rather than exact numbers.

T1 sequence (Q13191 whole entry): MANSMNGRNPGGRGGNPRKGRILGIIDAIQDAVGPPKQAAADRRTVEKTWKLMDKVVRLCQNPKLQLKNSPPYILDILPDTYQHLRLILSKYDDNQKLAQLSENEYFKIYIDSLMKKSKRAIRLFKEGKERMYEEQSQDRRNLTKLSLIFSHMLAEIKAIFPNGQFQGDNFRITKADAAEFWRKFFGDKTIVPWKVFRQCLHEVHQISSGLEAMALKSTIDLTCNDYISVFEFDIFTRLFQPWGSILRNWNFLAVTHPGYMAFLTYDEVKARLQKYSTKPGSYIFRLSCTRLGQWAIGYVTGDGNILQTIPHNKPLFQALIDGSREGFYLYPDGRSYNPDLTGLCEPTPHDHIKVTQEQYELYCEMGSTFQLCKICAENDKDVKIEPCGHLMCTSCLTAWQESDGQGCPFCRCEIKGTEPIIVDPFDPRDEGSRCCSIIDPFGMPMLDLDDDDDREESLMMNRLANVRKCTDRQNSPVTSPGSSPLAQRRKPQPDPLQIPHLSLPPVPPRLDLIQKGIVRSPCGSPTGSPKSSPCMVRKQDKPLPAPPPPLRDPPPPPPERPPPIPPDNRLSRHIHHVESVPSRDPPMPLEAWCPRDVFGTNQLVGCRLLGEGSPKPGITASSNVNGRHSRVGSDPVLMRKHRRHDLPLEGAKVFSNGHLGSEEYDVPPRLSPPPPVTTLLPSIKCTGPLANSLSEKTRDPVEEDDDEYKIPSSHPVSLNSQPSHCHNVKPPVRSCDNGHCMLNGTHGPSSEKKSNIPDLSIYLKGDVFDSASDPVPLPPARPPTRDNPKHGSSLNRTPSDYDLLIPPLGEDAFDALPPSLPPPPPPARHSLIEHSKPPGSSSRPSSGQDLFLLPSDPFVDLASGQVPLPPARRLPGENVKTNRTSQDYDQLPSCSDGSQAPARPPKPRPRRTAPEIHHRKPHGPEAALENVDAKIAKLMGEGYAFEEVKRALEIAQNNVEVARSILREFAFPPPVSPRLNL

Turning to `C[C@H]1C[C@@H](O)CN(Cc2cc(C(F)(F)F)c3cn(-c4cccc([C@H](c5nncn5C)C5CCC5)c4)c(=O)n3c2)C1` (single isomer, unassigned) [Compound 587], the IC50 under setting [1] was under 100 nM.

Turning to `C[C@H]1CN(Cc2cc(C(F)(F)F)c3cn(-c4cccc([C@H](c5nncn5C)C5CCC5)c4)c(=O)n3c2)CC[C@@H]1O` (single isomer, unassigned) [Compound 588], under setting [1], the IC50 was under 100 nM.

Take `C[C@@H]1C[C@H](O)CN(Cc2cc(C(F)(F)F)c3cn(-c4cccc([C@H](c5nncn5C)C5CCC5)c4)c(=O)n3c2)C1` (single isomer, unassigned) [Compound 589]: the IC50 under setting [1] is under 100 nM.

Take `C[C@@H]1CC(=O)NN1Cc1cc(C(F)(F)F)c2cn(-c3cccc([C@H](c4nncn4C)C4CCC4)c3)c(=O)n2c1` (single isomer, unassigned) [Compound 598]: the IC50 under setting [1] was under 100 nM.

Turning to `C[C@H]1CC(=O)NN1Cc1cc(C(F)(F)F)c2cn(-c3cccc([C@H](c4nncn4C)C4CCC4)c3)c(=O)n2c1` (single isomer, unassigned) [Compound 599], the IC50 under setting [1] was under 100 nM.

For the compound `CO[C@H]1C[C@@](c2cccc(-n3cc4c(C(F)(F)F)cc([C@@H](C)N5CCC[C@H](C)C5)cn4c3=O)c2)(c2nncn2C)C1` (single isomer, unassigned) [Compound 600], the IC50 under setting [1] is under 100 nM.

Turning to `CO[C@H]1C[C@@](c2cccc(-n3cc4c(C(F)(F)F)cc([C@H](C)N5CCC[C@H](C)C5)cn4c3=O)c2)(c2nncn2C)C1` (single isomer, unassigned) [Compound 601], the IC50 under setting [1] is under 100 nM.

As for `CO[C@H]1C[C@@](c2cccc(-n3cc4c(C(F)(F)F)cc([C@@H](C)N5CCC(F)CC5)cn4c3=O)c2)(c2nncn2C)C1` (single isomer, unassigned) [Compound 602], the IC50 under setting [1] was 301 to 1000 nM.

Consider `CO[C@H]1C[C@@](c2cccc(-n3cc4c(C(F)(F)F)cc([C@H](C)N5CCC(F)CC5)cn4c3=O)c2)(c2nncn2C)C1` (single isomer, unassigned) [Compound 603], for which the IC50 under setting [1] was under 100 nM.

On to `CO[C@H]1C[C@](c2cccc(-n3cc4c(C(F)(F)F)cc([C@@H](C)N5CCC[C@H](C)C5)cn4c3=O)c2)(c2nncn2C)C1` (single isomer, unassigned) [Compound 604], for which, under setting [1], the IC50 was under 100 nM.

In the case of `CO[C@H]1C[C@](c2cccc(-n3cc4c(C(F)(F)F)cc([C@H](C)N5CCC[C@H](C)C5)cn4c3=O)c2)(c2nncn2C)C1` (single isomer, unassigned) [Compound 605], the IC50 under setting [1] is under 100 nM.

For `CO[C@H]1C[C@](c2cccc(-n3cc4c(C(F)(F)F)cc([C@@H](C)N5CCC(F)CC5)cn4c3=O)c2)(c2nncn2C)C1` (single isomer, unassigned) [Compound 606], the IC50 under setting [1] was 100 to 300 nM.

Take `CO[C@H]1C[C@](c2cccc(-n3cc4c(C(F)(F)F)cc([C@H](C)N5CCC(F)CC5)cn4c3=O)c2)(c2nncn2C)C1` (single isomer, unassigned) [Compound 607]: under setting [1], the IC50 was under 100 nM.

As to `C[C@H](c1cc(C(F)(F)F)c2cn(-c3cccc([C@H](c4nncn4C)C4CCC4)c3)c(=O)n2c1)N1CCC[C@@H](C(F)(F)F)C1` (single isomer, unassigned) [Compound 613], under setting [1], the IC50 is under 100 nM.

Regarding `C[C@@H](c1cc(C(F)(F)F)c2cn(-c3cccc([C@H](c4nncn4C)C4CCC4)c3)c(=O)n2c1)N1CCC[C@@H](C(F)(F)F)C1` (single isomer, unassigned) [Compound 614], under setting [1], the IC50 is under 100 nM.

Regarding `CO[C@H]1C[C@@](c2cccc(-n3cc4c(C(F)(F)F)cc([C@@H](C)N5CC[C@H](F)C5)cn4c3=O)c2)(c2nncn2C)C1` (single isomer, unassigned) [Compound 615], under setting [1], the IC50 was 301 to 1000 nM.

In the case of `CO[C@H]1C[C@@](c2cccc(-n3cc4c(C(F)(F)F)cc([C@H](C)N5CC[C@H](F)C5)cn4c3=O)c2)(c2nncn2C)C1` (single isomer, unassigned) [Compound 616], under setting [1], the IC50 was under 100 nM.

Regarding `CO[C@H]1C[C@](c2cccc(-n3cc4c(C(F)(F)F)cc([C@@H](C)N5CC[C@@H](F)C5)cn4c3=O)c2)(c2nncn2C)C1` (single isomer, unassigned) [Compound 617], the IC50 under setting [1] is 100 to 300 nM.

In the case of `CO[C@H]1C[C@](c2cccc(-n3cc4c(C(F)(F)F)cc([C@H](C)N5CC[C@@H](F)C5)cn4c3=O)c2)(c2nncn2C)C1` (single isomer, unassigned) [Compound 618], the IC50 under setting [1] fell in the range of 100 to 300 nM.

On to `Cn1cnnc1[C@H](c1cc(F)cc(-n2cc3c(C(F)(F)F)cc(CN4CC(F)(F)C4)cn3c2=O)c1)C1CCC1` (single isomer, unassigned) [Compound 619], for which the IC50 under setting [1] was over 10000 nM.

With `Cn1cnnc1[C@@H](c1cc(F)cc(-n2cc3c(C(F)(F)F)cc(CN4CC(F)(F)C4)cn3c2=O)c1)C1CCC1` (single isomer, unassigned) [Compound 620], the IC50 under setting [1] was 100 to 300 nM.

As for `CN1CC[C@]2(CCN(Cc3cc(C(F)(F)F)c4cn(-c5cccc([C@H](c6nncn6C)C6CCC6)c5)c(=O)n4c3)C2)C1=O` (single isomer, unassigned) [Compound 621], the IC50 under setting [1] was under 100 nM.

For the compound `CN1CC[C@@]2(CCN(Cc3cc(C(F)(F)F)c4cn(-c5cccc([C@H](c6nncn6C)C6CCC6)c5)c(=O)n4c3)C2)C1=O` (single isomer, unassigned) [Compound 623], the IC50 under setting [1] was under 100 nM.

As to `CC(Cc1nncn1C)c1cccc(-n2cc3c(C(F)(F)F)cccn3c2=O)c1` (stereo not shown) [Compound 1], the IC50 under setting [2] was in the range of 301 to 1000 nM.

As for `C[C@H](Cc1nncn1C)c1cccc(-n2cc3c(C(F)(F)F)cccn3c2=O)c1` [Compound 2], the IC50 under setting [2] lay within 301 to 1000 nM.

In the case of `C[C@@H](Cc1nncn1C)c1cccc(-n2cc3c(C(F)(F)F)cccn3c2=O)c1` [Compound 3], the IC50 under setting [2] is 3000 to 10000 nM.

Take `Cn1cnnc1CC1CCc2c1cccc2-n1cc2c(C(F)(F)F)cccn2c1=O` (stereo not shown) [Compound 4]: under setting [2], the IC50 was over 10000 nM.

On to `C[C@@H](Sc1nncn1C)c1cccc(-n2cc3c(C(F)(F)F)cccn3c2=O)c1` [Compound 5], for which the IC50 under setting [2] is over 10000 nM.

For `C[C@H](Sc1nncn1C)c1cccc(-n2cc3c(C(F)(F)F)cccn3c2=O)c1` [Compound 6], the IC50 under setting [2] is over 10000 nM.

Regarding `Cn1cnnc1CC1(c2cccc(-n3cc4c(C(F)(F)F)cc(Br)cn4c3=O)c2)COC1` [Compound 7], the IC50 under setting [2] lay within 100 to 300 nM.

For the compound `C=Cc1cc(C(F)(F)F)c2cn(-c3cccc(C4(Cc5nncn5C)COC4)c3)c(=O)n2c1` [Compound 8], the IC50 under setting [2] lay in the range of 100 to 300 nM.

For `Cn1cnnc1CC1(c2cccc(-n3cc4c(C(F)(F)F)cccn4c3=O)c2)COC1` [Compound 9], the IC50 under setting [2] fell in the range of 100 to 300 nM.

For the compound `Cn1cnnc1CC1(c2cccc(-n3cc4c(C(F)(F)F)cc(CN5CCC6(CC6)C5)cn4c3=O)c2)COC1` [Compound 10], the IC50 under setting [2] was under 100 nM.

On to `Cn1cnnc1CC1(c2cccc(-n3cc4c(C(F)(F)F)cc(CN5CCC(C)(F)CC5)cn4c3=O)c2)COC1` [Compound 11], for which, under setting [2], the IC50 was under 100 nM.

`C[C@@H]1CN(Cc2cc(C(F)(F)F)c3cn(-c4cccc(C5(Cc6nncn6C)COC5)c4)c(=O)n3c2)CCO1` [Compound 12]: the IC50 under setting [2] was under 100 nM.

For `Cn1cnnc1CC1(c2cccc(-n3cc4c(C(F)(F)F)cc(CN5CCC(F)CC5)cn4c3=O)c2)COC1` [Compound 13], under setting [2], the IC50 was under 100 nM.

As to `Cn1cnnc1CC1(c2cccc(-n3cc4c(C(F)(F)F)cc(CN5CC[C@H](F)C5)cn4c3=O)c2)COC1` [Compound 14], the IC50 under setting [2] is under 100 nM.
